Measured values from EP0240392A1, “Compounds of the cyclophosphazene type, process for their preparation and pharmaceutical preparation containing them” (CENTRE NATIONAL DE LA RECHERCHE SCIENTIFIQUE (CNRS), priority 1986, dated 1987).
Marks after values point to notes of the source that are not given here.

Key:
[1] = test system: MELANOME B16; test: Antitumour activity on B16 melanoma implanted i.m. in mice; format: in vivo, souris C57B1/6
Description: (§1) Les tests d'activité antitumorale ont été conduits au sein du Screening and Pharmacology Group de l'E.O.R.T.C., implanté à l'Institut Mario Negri de Milan.
(§2) Ces essais ont été conduits soit en mono-injection à différentes doses au jour J+1 suivant la greffe de la tumeur, soit en poly-injections chroniques Q1D, soit en protocoles Q4D.
(§3) L'activité antitumorale est mesurée par le rapport T/C %, T (en jours) étant le durée moyenne de vie des souris traitées, C (en jours) étant la durée moyenne de vie des souris témoins.
(§4) L'effet thérapeutique est considéré comme significatif quant T/C % est supérieur ou égal à 125.

[2] = Acute toxicity i.p. in mice (DLo, maximal non-lethal dose); format: in vivo, souris mâles Swiss ou CD2F1
Protocol: La toxicité de SPM a été déterminée sur des souris mâles Swiss ou CD2F1. La léthalité, quand elle existe, apparaît systématiquement aux jours 5 et 6 après l'adminstration par voie i.p. L'enregistrement de cette léthalité en fonction de la dose injectée permet de déduire la DLo qui est la dose maximale non léthale. La même valeur de DLo a été obtenue chez les Swiss et les CD2F1 : elle a été trouvée égale à 1 500 mg/kg. C'est là un résultat remarquable.

[3] = test system: LEUCEMIE L1210; test: Antitumour activity on L1210 leukemia implanted i.p. in mice; format: in vivo, souris CD2F1; parameters: key to T/C (%): Δ: 2 souris mortes avant le 5ème jour, 1 souris au jour 6, 2 souris au jour 16 et la dernière était encore vivante après le 40ème jour
Description: as §1, §2, §3, §4

[4] = test system: CARCINOME MAMMAIRE LIGNEE 16; test: Antitumour activity on mammary carcinoma line 16 implanted i.m. in mice; format: in vivo, souris 3CH
Description: as §1, §2, §3, §4

[5] = 300 mg/kg i.p. j 1,5,9, jour 27
[6] = 200 mg/kg i.p. j 1,5,9, jour 26
[7] = 300 mg/kg i.p. j 1,5,9, jour 26

C(CCN1CCCNP12=NP(N1CC1)(N1CC1)=NP(N1CC1)(N1CC1)=N2)CN1CCCNP12=NP(N1CC1)(N1CC1)=NP(N1CC1)(N1CC1)=N2 (centres unmarked) [SPM]
T/C (%) ([1]; 200 mg/kg i.p. j 1-9): 138% | Volume moyen de la tumeur (cm^3 ± S.E.) ([1]; 200 mg/kg i.p. j 1-9, jour 20): 0,12±0,08* cm^3 | Volume moyen de la tumeur (cm^3 ± S.E.) ([1]; 200 mg/kg i.p. j 1-9, jour 24): 1,22±0,17* cm^3 | Volume moyen de la tumeur (cm^3 ± S.E.) ([1]; 200 mg/kg i.p. j 1-9, jour 27): 2,06±0,23 cm^3 | nombre de souris vivantes/total ([1]; 200 mg/kg i.p. j 1-9, jour 27): 9/9 | T/C (%) ([1]; 300 mg/kg i.p. j 1,5,9): 104% | Volume moyen de la tumeur (cm^3 ± S.E.) ([1]; 300 mg/kg i.p. j 1,5,9, jour 13): 0,44±0,06* cm^3 | Volume moyen de la tumeur (cm^3 ± S.E.) ([1]; 300 mg/kg i.p. j 1,5,9, jour 17): 1,72±0,12* cm^3 | Volume moyen de la tumeur (cm^3 ± S.E.) ([1]; 300 mg/kg i.p. j 1,5,9, jour 20): 2,67±0,24* cm^3 | Volume moyen de la tumeur (cm^3 ± S.E.) ([1]; 300 mg/kg i.p. j 1,5,9, jour 24): 5,36±0,42* cm^3 | Volume moyen de la tumeur (cm^3 ± S.E.) [1, 5]: 5,96±0,22 cm^3 | nombre de souris vivantes/total [1, 5]: 6/10 | DLo (dose maximale non léthale) ([2]; souris mâles CD2F1, i.p.): 1 500 mg/kg | DLo (dose maximale non léthale) ([2]; souris mâles Swiss, i.p.): 1 500 mg/kg | T/C (%) ([3]; Tableau 1, 25 mg/kg i.p. x j 1,5,9): 117% | T/C (%) ([3]; Tableau 1, 25 mg/kg i.p. x j 1-9): 131% | T/C (%) ([3]; Tableau 1, 50 mg/kg i.p. x j 1): 131% | T/C (%) ([3]; Tableau 1, 50 mg/kg i.p. x j 1,5,9): 131% | T/C (%) ([3]; Tableau 1, 50 mg/kg i.p. x j 1-9): 150% | T/C (%) ([3]; Tableau 1, 75 mg/kg i.p. x j 1-9): 140% | T/C (%) ([3]; Tableau 1, 100 mg/kg i.p. x j 1): 125% | T/C (%) ([3]; Tableau 1, 100 mg/kg i.p. x j 1,5,9): 137% | T/C (%) ([3]; Tableau 1, 100 mg/kg i.p. x j 1-9): 140% | T/C (%) ([3]; Tableau 1, 150 mg/kg i.p. x j 1-9): 170% | T/C (%) ([3]; Tableau 1, 200 mg/kg i.p. x j 1): 156% | T/C (%) ([3]; Tableau 1, 200 mg/kg i.p. x j 1,5,9): 159% | T/C (%) ([3]; Tableau 1, 300 mg/kg i.p. x j 1): 135% | T/C (%) ([3]; Tableau 1, 300 mg/kg i.p. x j 1,5,9): 164% | T/C (%) ([3]; Tableau 1, 400 mg/kg i.p. x j 1): 130% | T/C (%) ([3]; Tableau 1, 12,5 mg/kg i.p. x j 1-9): 112% | T/C (%) ([3]; Tableau 10, 25 mg/kg i.p. x j 1-9): 141% | T/C (%) ([3]; Tableau 10, 50 mg/kg i.p. x j 1,5,9): 123% | T/C (%) ([3]; Tableau 10, 50 mg/kg i.p. x j 1-9): 152% | T/C (%) ([3]; Tableau 10, 100 mg/kg i.p. x j 1): 135% | T/C (%) ([3]; Tableau 10, 100 mg/kg i.p. x j 1,5,9): 152% | T/C (%) ([3]; Tableau 10, 100 mg/kg i.p. x j 1-9): 170% | T/C (%) ([3]; Tableau 10, 150 mg/kg i.p. x j 1,5,9): 176% | T/C (%) ([3]; Tableau 10, 150 mg/kg i.p. x j 1-9): 182% | T/C (%) ([3]; Tableau 10, 200 mg/kg i.p. x j 1): 147% | T/C (%) ([3]; Tableau 10, 250 mg/kg i.p. x j 1,5,9): 194% | T/C (%) ([3]; Tableau 10, 300 mg/kg i.p. x j 1): 158% | T/C (%) ([3]; Tableau 10, 400 mg/kg i.p. x j 1): Δ | activité sur la leucémie L1210 (result in words) ([3]; quel que soit le protocole utilisé): relativement faible | toxicity of the regimen (result in words) ([4]; 100 mg/kg i.p. j 1-9): TOXIQUE | T/C (%) ([4]; 200 mg/kg i.p. j 1,5,9): 105% | Volume moyen de la tumeur (cm^3 ± S.E.) ([4]; 200 mg/kg i.p. j 1,5,9, jour 15): 0,37±0,05* cm^3 | Volume moyen de la tumeur (cm^3 ± S.E.) ([4]; 200 mg/kg i.p. j 1,5,9, jour 19): 1,70±0,24* cm^3 | Volume moyen de la tumeur (cm^3 ± S.E.) ([4]; 200 mg/kg i.p. j 1,5,9, jour 22): 2,43±0,31* cm^3 | Volume moyen de la tumeur (cm^3 ± S.E.) [4, 6]: 3,71±0,46 cm^3 | nombre d'animaux vivants/total [4, 6]: 9/10 | toxicity of the regimen (result in words) ([4]; 200 mg/kg i.p. j 1-9): TOXIQUE | T/C (%) ([4]; 300 mg/kg i.p. j 1,5,9): 94% | Volume moyen de la tumeur (cm^3 ± S.E.) ([4]; 300 mg/kg i.p. j 1,5,9, jour 19): 0,24±0,14* cm^3 | Volume moyen de la tumeur (cm^3 ± S.E.) ([4]; 300 mg/kg i.p. j 1,5,9, jour 22): 0,45±0,28* cm^3 | Volume moyen de la tumeur (cm^3 ± S.E.) [4, 7]: 2,24±0,31 cm^3 | nombre d'animaux vivants/total [4, 7]: 3/10
